# Measurements: patent US11008295B2, “Compounds having antiinfective, antitumoral and antifungal activity” (priority 2017, dated 2021)
# Tests used:
# C. albicans = settings: clinical strain; cited from earlier work
# C. parapsilopsis = settings: C. parapsilosis, clinical strain; cited from earlier work
# C. glabrata = settings: clinical strain; cited from earlier work
# C. tropicalis = settings: clinical strain; cited from earlier work
# C. lusitaniae = settings: clinical strain; cited from earlier work
# C. guilliermondii = settings: C. guillermondii, clinical strain; cited from earlier work
# A. niger = settings: clinical strain; cited from earlier work
# A. fumigatus = settings: clinical strain; cited from earlier work
# A. flavus = settings: clinical strain; cited from earlier work
# A. terreus = settings: clinical strain; cited from earlier work
# C. Krusei = settings: clinical strain; cited from earlier work
# N. carnea = assay: Kirby-Bauer disk diffusion susceptibility test; format: cell-based, Nocardia carnea
# Description: (§1) Bacterial strains, from clinical origin, were supplied by the National Center for Microbiology, Institute of Health Carlos III (Majadahonda, Madrid). They are detailed in Table I.
# (§2) Bacterial cells suspension in sterile saline was prepared from a culture of 24-72 h, depending on bacterial species, in Mueller-Hinton Agar with 5% sheep blood. Each suspension was adjusted to a fixed size inoculum of 1-5×10^8 CFU/ml with a spectrophotometer (Ferraro, M J National Committee for Clinical Laboratory Standards. 2000).
# (§3) Kirby-Bauer disk diffusion susceptibility test protocol was utilized to determine the sensitivity or resistance of pathogenic bacteria against the compounds and others antibiotics. The absence of growth around the disks is an indirect measure of the ability of this compound to inhibit an organism (Kirby, W. et al., Antibiotics Annu. 1956-1957:892). After 18 to 72 hours of incubation at […], with or without CO2, under aerobic or anaerobic conditions, depending on the bacterial species, halo of growth inhibition were obtained and evaluated.
# (§4) Interpretation of susceptibility and resistance was based on the presence or absence of a zone of inhibition surrounding the disk. Kirby-Bauer disk diffusion susceptibility test is a common method which uses antibiotic-impregnated wafers to test whether bacteria are affected by antibiotics. The size of the zone of inhibition depends on how effective the antibiotic is at stopping the growth of the bacterium. A stronger antibiotic will create a larger zone, because a lower concentration of the antibiotic is enough to stop growth.
# T. pulmonis = assay: Kirby-Bauer disk diffusion susceptibility test; format: cell-based, Tsukamurella pulmonis
# Description: as §1, §2, §3, §4
# M. abscessus = assay: Kirby-Bauer disk diffusion susceptibility test; format: cell-based, Mycobacterium abscessus; settings: M. abscessus strain 690, isolation year 2012
# Description: as §1, §2, §3, §4
# E. coli = assay: Kirby-Bauer disk diffusion susceptibility test; format: cell-based
# Description: as §1, §2, §3, §4
# M. chelonae = assay: Kirby-Bauer disk diffusion susceptibility test; format: cell-based; settings: M. chelonae strain 870, isolation year 2011
# Description: as §1, §2, §3, §4
# M. fortuitum = assay: Kirby-Bauer disk diffusion susceptibility test; format: cell-based; settings: M. fortuitum strain 1080, isolation year 2011
# Description: as §1, §2, §3, §4
# N. cyriacigeorgica = assay: Kirby-Bauer disk diffusion susceptibility test; format: cell-based
# Description: as §1, §2, §3, §4
# S. aureus = assay: Kirby-Bauer disk diffusion susceptibility test; format: cell-based
# Description: as §1, §2, §3, §4
# S. epidermidis = assay: Kirby-Bauer disk diffusion susceptibility test; format: cell-based
# Description: as §1, §2, §3, §4
# B. cereus = assay: Kirby-Bauer disk diffusion susceptibility test; format: cell-based, Bacillus cereus
# Description: as §1, §2, §3, §4
# A. baumannii = assay: Kirby-Bauer disk diffusion susceptibility test; format: cell-based
# Description: as §1, §2, §3, §4
# P. aeruginosa = assay: Kirby-Bauer disk diffusion susceptibility test; format: cell-based; settings: P. aeruginosa strain 96, isolation year 2014
# Description: as §1, §2, §3, §4
# E. faecalis = assay: Kirby-Bauer disk diffusion susceptibility test; format: cell-based
# Description: as §1, §2, §3, §4
# E. faecium = assay: Kirby-Bauer disk diffusion susceptibility test; format: cell-based
# Description: as §1, §2, §3, §4
# [1] = N. carnea strain 40, isolation year 2011
# [2] = N. carnea strain 769, isolation year 2009
# [3] = T. pulmonis strain 40, isolation year 2015
# [4] = T. pulmonis strain 1991, isolation year 2009
# [5] = E. coli strain 29, isolation year 2012
# [6] = E. coli strain 305, isolation year 2008
# [7] = N cyriacigeorgica strain 199, isolation year 2005
# [8] = N. cyriacigeorgica strain 30, isolation year 2005
# [9] = B. cereus strain 25, isolation year 2014
# [10] = B. cereus strain 182, isolation year 2013
# Note: key: I = intermediate activity; S = susceptibility; R = Resistance.
Molecule,Characteristics of the strains: susceptibility to the antifungal (C. albicans),Characteristics of the strains: susceptibility to the antifungal (C. parapsilopsis),Characteristics of the strains: susceptibility to the antifungal (C. glabrata),Characteristics of the strains: susceptibility to the antifungal (C. tropicalis),Characteristics of the strains: susceptibility to the antifungal (C. lusitaniae),Characteristics of the strains: susceptibility to the antifungal (C. guilliermondii),Characteristics of the strains: susceptibility to the antifungal (A. niger),Characteristics of the strains: susceptibility to the antifungal (A. fumigatus),Characteristics of the strains: susceptibility to the antifungal (A. flavus),Characteristics of the strains: susceptibility to the antifungal (A. terreus),Characteristics of the strains: susceptibility to the antifungal (C. Krusei),Sensitivity or resistance of the strain to the antibiotic (N. carnea; [1]),Sensitivity or resistance of the strain to the antibiotic (N. carnea; [2]),Sensitivity or resistance of the strain to the antibiotic (T. pulmonis; [3]),Sensitivity or resistance of the strain to the antibiotic (T. pulmonis; [4]),Sensitivity or resistance of the strain to the antibiotic (M. abscessus),Sensitivity or resistance of the strain to the antibiotic (E. coli; [5]),Sensitivity or resistance of the strain to the antibiotic (E. coli; [6]),Sensitivity or resistance of the strain to the antibiotic (M. chelonae),Sensitivity or resistance of the strain to the antibiotic (M. fortuitum),further results
C[C@@H]1[C@H](O)[C@@H](C)/C=C/C=C/C=C/C=C/C=C/C=C/C=C/[C@H](O[C@@H]2O[C@H](C)[C@@H](O)[C@H](N)[C@@H]2O)C[C@@H]2O[C@](O)(C[C@@H](O)C[C@@H](O)[C@H](O)CC[C@@H](O)C[C@@H](O)CC(=O)O[C@H]1C)C[C@H](O)[C@H]2C(=O)O [Amphotericin B],I,S,S,S,I,R,S,S,I,I,I,,,,,,,,,,
Clc1ccccc1C(c1ccccc1)(c1ccccc1)n1ccnc1 [Clotrimazole],S,S,S,S,S,R,S,S,S,S,S,,,,,,,,,,
"CC[C@H]1OC(=O)[C@H](C)[C@@H](O[C@H]2C[C@@](C)(OC)[C@@H](O)[C@H](C)O2)[C@H](C)[C@@H](O[C@@H]2O[C@H](C)C[C@H](N(C)C)[C@H]2O)[C@](C)(O)C[C@@H](C)C(=O)[C@H](C)[C@@H](O)[C@]1(C)O [ERI, Erythromycin]",,,,,,,,,,,,R,R,R,S,S,S,S,R,R,"Sensitivity or resistance of the strain to the antibiotic (N. cyriacigeorgica; [7]): R; Sensitivity or resistance of the strain to the antibiotic (N. cyriacigeorgica; [8]): R; Sensitivity or resistance of the strain to the antibiotic (S. aureus; S. aureus strain 282, isolation year 2005): R; Sensitivity or resistance of the strain to the antibiotic (S. aureus; S. aureus strain 890, isolation year 2010): R; Sensitivity or resistance of the strain to the antibiotic (S. epidermidis; S. epidermidis strain 188, isolation year 2009): S; Sensitivity or resistance of the strain to the antibiotic (S. epidermidis; S. epidermidis strain 982, isolation year 2006): R; Sensitivity or resistance of the strain to the antibiotic (B. cereus; [9]): R; Sensitivity or resistance of the strain to the antibiotic (B. cereus; [10]): R"
OC(Cn1cncn1)(Cn1cncn1)c1ccc(F)cc1F [Fluconazole],S,S,S,S,S,R,R,R,R,R,S,,,,,,,,,,
"C[C@@H](O)[C@H]1C(=O)N2C(C(=O)O)=C(SCCN=CN)C[C@H]12 [IMP, Imipenem]",,,,,,,,,,,,R,S,S,S,R,S,S,R,R,"Sensitivity or resistance of the strain to the antibiotic (A. baumannii; A. baumannii strain 300, isolation year 2001): R; Sensitivity or resistance of the strain to the antibiotic (A. baumannii; A. baumannii strain 1301, isolation year 2009): S; Sensitivity or resistance of the strain to the antibiotic (N. cyriacigeorgica; [7]): R; Sensitivity or resistance of the strain to the antibiotic (N. cyriacigeorgica; [8]): S"
CC(=O)N1CCN(c2ccc(OCC3COC(Cn4ccnc4)(c4ccc(Cl)cc4Cl)O3)cc2)CC1 (centres unmarked) [Ketoconazole],S,S,S,S,S,R,S,S,S,S,S,,,,,,,,,,
"CC(=O)NC[C@H]1CN(c2ccc(N3CCOCC3)c(F)c2)C(=O)O1 [LIN, Linezolid]",,,,,,,,,,,,S,S,R,S,S,,,R,R,Sensitivity or resistance of the strain to the antibiotic (N. cyriacigeorgica; [7]): S; Sensitivity or resistance of the strain to the antibiotic (N. cyriacigeorgica; [8]): S; Sensitivity or resistance of the strain to the antibiotic (P. aeruginosa): S
Penicillin,,,,,,,,,,,,,,,,R,R,R,R,R,"Sensitivity or resistance of the strain to the antibiotic (E. faecalis; E. faecalis strain 52, isolation year 2006): R; Sensitivity or resistance of the strain to the antibiotic (E. faecalis; E. faecalis strain 1052, isolation year 2008): R; Sensitivity or resistance of the strain to the antibiotic (E. faecium; E. faecium strain 26, isolation year 2012): R; Sensitivity or resistance of the strain to the antibiotic (E. faecium; E. faecium strain 209, isolation year 2015): R; Sensitivity or resistance of the strain to the antibiotic (B. cereus; [9]): S; Sensitivity or resistance of the strain to the antibiotic (B. cereus; [10]): S"
